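The compound was tested at five concentrations on cells cultured in 96-well plates, with a 48-hour exposure period. TGI is the concentration that stops growth completely.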
Columns and labels:
Assay in all cases: NCI tumour cell line growth inhibition, 48 h
HOP-62 NSCLC = tested on: HOP-62 NSCLC
UACC-62 melanoma = tested on: UACC-62 melanoma
EKVX NSCLC = tested on: EKVX NSCLC
HCT-116 colon = tested on: HCT-116 colon
UACC-257 melanoma = tested on: UACC-257 melanoma
SK-MEL-28 melanoma = tested on: SK-MEL-28 melanoma
MALME-3M melanoma = tested on: MALME-3M melanoma
UO-31 renal = tested on: UO-31 renal
OVCAR-4 ovarian = tested on: OVCAR-4 ovarian
SF-295 CNS = tested on: SF-295 CNS
BT-549 breast = tested on: BT-549 breast
HL-60(TB) leukemia = tested on: HL-60(TB) leukemia
PC-3 prostate = tested on: PC-3 prostate
HS 578T breast = tested on: HS 578T breast
HCC-2998 colon = tested on: HCC-2998 colon
RPMI-8226 leukemia = tested on: RPMI-8226 leukemia

Structure (SMILES)	TGI (HOP-62 NSCLC)	TGI (UACC-62 melanoma)	TGI (EKVX NSCLC)	TGI (HCT-116 colon)	TGI (UACC-257 melanoma)	TGI (SK-MEL-28 melanoma)	TGI (MALME-3M melanoma)	TGI (UO-31 renal)	TGI (OVCAR-4 ovarian)	TGI (SF-295 CNS)	TGI (BT-549 breast)	TGI (HL-60(TB) leukemia)	TGI (PC-3 prostate)	TGI (HS 578T breast)	TGI (HCC-2998 colon)	TGI (RPMI-8226 leukemia)
Clc1c2ccccc2nc2c1[nH]c1ccccc12	> 100 µM	> 100 µM	> 100 µM	> 100 µM	> 100 µM	> 100 µM	> 100 µM	> 100 µM	> 100 µM	> 100 µM	> 100 µM	41.4 µM	> 100 µM	> 100 µM	> 100 µM	68.2 µM
O=C1CC2SC(COCc3ccccc3)(CCN2Cc2ccccc2)C1 (centres undefined)	> 100 µM	> 100 µM	> 100 µM	> 100 µM	> 100 µM	> 100 µM	> 100 µM	> 100 µM	> 100 µM	> 100 µM	> 100 µM	43 µM	> 100 µM	> 100 µM	> 100 µM	93.4 µM
CCCC(=O)NC(Nc1ccc(S(=O)(=O)Nc2ccc(OC)nn2)cc1)(C(F)(F)F)C(F)(F)F	> 100 µM	> 100 µM	> 100 µM	> 100 µM	> 100 µM	> 100 µM	> 100 µM	> 100 µM	> 100 µM	> 100 µM	> 100 µM	> 100 µM	> 100 µM	> 100 µM	> 100 µM	> 100 µM
CC[C@H](C)[C@H](NC(=O)[C@@]1(O)[C@H](O)[C@]2(CC)C=CCN3CC[C@@]4(c5cc(Br)c(OC)cc5N(C)[C@@H]14)[C@@H]32)C(=O)OC	> 100 µM	28.9 µM	> 100 µM	> 100 µM	62.1 µM	38.7 µM	83.7 µM	> 100 µM	50 µM	> 100 µM	> 100 µM	70.8 µM	> 100 µM	77.1 µM	87.7 µM	34.9 µM
O=c1oc2ccc3ccccc3c2cc1-c1nc2ccc([N+](=O)[O-])cc2o1	> 45.2 µM	> 100 µM	> 100 µM	> 100 µM	> 100 µM	> 100 µM	> 100 µM	> 92.1 µM	> 100 µM	> 49.5 µM	> 95 µM	> 100 µM	> 100 µM	> 100 µM	> 100 µM	> 100 µM
COc1cccc(/C=C\c2ccc(O)cc2)c1	> 100 µM	> 100 µM	> 100 µM	74 µM	> 100 µM	> 100 µM	65.9 µM	33.7 µM	> 100 µM	> 100 µM	58.4 µM	2.92 µM	99.5 µM	75 µM	> 62.8 µM	> 100 µM
O=c1oc2ccc([N+](=O)[O-])cc2cc1Br	> 100 µM	> 100 µM	> 100 µM	> 100 µM	> 100 µM	> 100 µM	> 100 µM	> 100 µM	> 100 µM	> 100 µM	> 100 µM	> 100 µM	> 100 µM	> 100 µM	> 100 µM	> 100 µM
Cc1ccc(N2C(N)=C(C#N)C(C#N)(C#N)C2c2ccccc2)cc1 (centres undefined)	36.9 µM	26.7 µM	46 µM	14.4 µM	30.4 µM	22.3 µM	27.8 µM	32 µM	26.9 µM	60.3 µM	23.5 µM	6.15 µM	44.9 µM	76.7 µM	25.8 µM	32.1 µM
CC1(C)C2CCC(O)(C2)C1N (centres undefined)	> 100 µM	> 100 µM	> 100 µM	> 100 µM	> 100 µM	> 100 µM	> 100 µM	> 100 µM	> 100 µM	> 100 µM	> 100 µM	> 31.6 µM	> 100 µM	> 100 µM	> 100 µM	> 100 µM
CCCNC(=O)N1CC(CN2CCN(c3ccccc3)CC2)O/C1=N/C(=O)Nc1ccccc1 (centres undefined)	> 100 µM	> 100 µM	> 100 µM	> 100 µM	> 100 µM	> 100 µM	> 100 µM	> 100 µM	> 100 µM	> 100 µM	> 100 µM	> 100 µM	> 100 µM	> 100 µM	> 100 µM	> 100 µM
Nc1nc(=S)n(-c2ccc(Cl)cc2)c2nc3ccccc3cc12	> 100 µM	> 100 µM	> 100 µM	> 100 µM	> 100 µM	> 100 µM	> 100 µM	> 100 µM	> 100 µM	> 100 µM	67.1 µM	> 100 µM	> 100 µM	> 100 µM	> 100 µM	> 100 µM
CC(C)[C@@H](C)[C@@]1(C)C[C@@H]1[C@@H](C)[C@H]1CC[C@@H]([C@@H]2CC=C3C[C@@H](O)CC[C@]3(C)C2=O)[C@]1(C)CCO	31.2 µM	27.7 µM	26 µM	21.6 µM	27.4 µM	20.1 µM	27.4 µM	28.5 µM	24.8 µM	21.2 µM	30.3 µM	5.2 µM	21.8 µM	25.2 µM	16.4 µM	52 µM
COc1cc(/C=N/NC2=NCCCCN2)ccc1O	> 100 µM	> 100 µM	> 100 µM	> 100 µM	> 100 µM	> 100 µM	> 100 µM	> 100 µM	> 100 µM	> 100 µM	> 100 µM	> 100 µM	> 100 µM	> 100 µM	> 100 µM	> 100 µM
COc1cccc(-c2c(-c3ccccc3)[nH]c(C)c2C(=O)ONC(=O)c2ccccc2)c1	10 µM	26.9 µM	23.8 µM	15 µM	26.6 µM	30.4 µM	28.4 µM	3.49 µM	> 24.5 µM	7.64 µM	18.7 µM	4.37 µM	23.9 µM	24 µM	27.4 µM	29.3 µM
COC1=CC(=O)C2=C(C[C@@]3(C)C(=C2)C(CO)=CC[C@H]3O)C1=O	49.6 µM	32.4 µM	38.8 µM	40.8 µM	36.9 µM	82.7 µM	> 100 µM	39.5 µM	31.8 µM	41.2 µM	34 µM	14.1 µM	69.1 µM	> 100 µM	83.1 µM	44.5 µM
O=C1C(S(=O)(=O)c2ccccc2)=C(CS(=O)(=O)c2ccccc2)[C@@H](OCc2ccccc2)[C@@H]1OCc1ccccc1	53.2 µM	40 µM	> 100 µM	27 µM	66.3 µM	35.9 µM	36.1 µM	37.1 µM	57.8 µM	40.4 µM	27 µM	43.9 µM	85.8 µM	67 µM	36.3 µM	36.1 µM
COC1CC(O[C@H]2CC[C@@]3(C)[C@@H](CC[C@]4(O)[C@@H]3CC[C@]3(C)[C@@H](C(C)=O)[C@H](OC(=O)CC(C)C)[C@@H](OC(=O)c5ccccc5)[C@@]34O)C2)OC(C)C1OC1CC(OC)C(OC2OC(C)C(O)C(OC)C2O)C(C)O1 (some centres undefined)	> 25 µM	–	> 25 µM	> 25 µM	> 25 µM	> 25 µM	> 25 µM	> 25 µM	> 25 µM	> 25 µM	> 25 µM	> 25 µM	> 25 µM	> 25 µM	> 25 µM	14.5 µM
C/C(Cc1ccc2c(c1)OCO2)=N\NC(=O)C(C)Sc1nnc(SC(C)C(=O)N/N=C(\C)Cc2ccc3c(c2)OCO3)s1 (centres undefined)	> 100 µM	> 100 µM	> 100 µM	> 100 µM	> 100 µM	> 100 µM	> 100 µM	> 100 µM	> 100 µM	> 100 µM	> 100 µM	> 100 µM	> 100 µM	> 100 µM	> 100 µM	> 100 µM
CCOC(=O)C(CCc1ncnc2c1ncn2Cc1ccccc1)(CCc1ncnc2c1ncn2Cc1ccccc1)C(=O)OCC	> 100 µM	> 100 µM	> 100 µM	> 100 µM	> 100 µM	> 100 µM	> 100 µM	10.9 µM	> 100 µM	> 100 µM	> 100 µM	> 100 µM	> 100 µM	> 100 µM	54.8 µM	> 100 µM
O=C1c2ccccc2C(=O)c2c(NCCCN3CCOCC3)ccc(NCCCN3CCOCC3)c21	13.1 µM	6.05 µM	46.6 µM	10.4 µM	9.91 µM	19.8 µM	27.7 µM	17.4 µM	> 100 µM	11.4 µM	21.6 µM	> 100 µM	12.9 µM	28.5 µM	27 µM	42.8 µM

Source: PubChem BioAssay (NCI)
